Reference: publication PMC12431657, “Discovery and mechanistic insights of dibenzoylmethane as a broad spectrum inhibitor of coronavirus” (PLOS Pathogens, 2025)
Several values for one entry are separate records, joined by “and”; a condition that tells them apart may be missing. Identical values can stand only once.

Legend:
HCoV-OC43 [1] = test: Time-of-addition assay; type: cell-based; details: replicates
Description: To obtain further insight into the stage at which DBM inhibits the replication of HCoV-OC43 and other HCoVs, RD cells were incubated with compounds, including DBM, remdesivir (RDV), and chloroquine (CQ), at different stages of viral infection. Viral RNA from the supernatant was extracted and quantitatively analysed via qRT-PCR. […] For the viral binding assay, cells were cultured in the presence or absence of DBM at different concentrations for 1 hour before being infected with HCoV-OC43 at an MOI of 50, and then were placed on ice for 2 hours for the viral particles to bind to the membrane of the host cells, followed by washing with PBS. […] In addition to binding to receptors from host cells, the spike proteins of HCoV-OC43 could also trigger membrane fusion when HCoV-OC43 spike plasmid-transfected 293T cells were seeded together with RD cells as target cells, and the addition of DBM had no effect on this process (S5C Fig). To examine whether DBM inhibits viral internalisation, cells were inoculated with HCoV-OC43 for 1 hour on ice before being treated with either DBM or DMSO, and CQ was included to prevent endosomal acidification. Subsequently, HCoV-OC43 nucleocapsid proteins were immunostained with CoraLite Plus 488 to assess viral internalisation via confocal microscopy. […] To determine whether DBM influences viral release, we quantified viral RNA both intracellularly and in the supernatant.
To evaluate the effects of DBM on the life cycle of HCoV-229E and HCoV-OC43, fresh culture medium containing 0.6 μM DBM, 0.1 μM remdesivir (RDV), or 10 μM chloroquine (CQ) was supplemented with preseeded cells at different time points relative to infection (entry group: 0 to –2 hours; postinfection group: 2–12 hours; and full-time group: 0 to –12 hours). DMSO served as the control. At 24 hours postinfection, the number of intracellular virus RNA copies was quantified by qRT-PCR as previously described.

HCoV-OC43 [2] = type: cell-based; details: transient expression or RDV control, replicates

SMILES: CCC(CC)COC(=O)[C@H](C)N[P@](=O)(OC[C@H]1O[C@@](C#N)(c2ccc3c(N)ncnn23)[C@H](O)[C@@H]1O)Oc1ccccc1 [RDV]
- time-of-addition, viral inhibition (HCoV-OC43 [1]; Entry): 67.6 and 36.5 and 35.3
- time-of-addition, viral inhibition (HCoV-OC43 [1]; Full-Time): 99.4 and 98.9 and 99.6
- time-of-addition, viral inhibition (HCoV-OC43 [1]; Post-Entry): 98.3 and 99.4 and 98.6
- HCoV-OC43 inhibition (Fig5C) (HCoV-OC43 [2]): 97.17 and 71.11 and 82.55
